This is an account of results in ChEMBL document CHEMBL1268985, “Syntheses of fluorescent imidazoquinoline conjugates as probes of Toll-like receptor 7” (Bioorg Med Chem Lett, 2010).

In one series the target is T1, Toll-like receptor 7 (Homo sapiens, UniProt Q9NYK1).
T1 sequence (Q9NYK1 whole entry): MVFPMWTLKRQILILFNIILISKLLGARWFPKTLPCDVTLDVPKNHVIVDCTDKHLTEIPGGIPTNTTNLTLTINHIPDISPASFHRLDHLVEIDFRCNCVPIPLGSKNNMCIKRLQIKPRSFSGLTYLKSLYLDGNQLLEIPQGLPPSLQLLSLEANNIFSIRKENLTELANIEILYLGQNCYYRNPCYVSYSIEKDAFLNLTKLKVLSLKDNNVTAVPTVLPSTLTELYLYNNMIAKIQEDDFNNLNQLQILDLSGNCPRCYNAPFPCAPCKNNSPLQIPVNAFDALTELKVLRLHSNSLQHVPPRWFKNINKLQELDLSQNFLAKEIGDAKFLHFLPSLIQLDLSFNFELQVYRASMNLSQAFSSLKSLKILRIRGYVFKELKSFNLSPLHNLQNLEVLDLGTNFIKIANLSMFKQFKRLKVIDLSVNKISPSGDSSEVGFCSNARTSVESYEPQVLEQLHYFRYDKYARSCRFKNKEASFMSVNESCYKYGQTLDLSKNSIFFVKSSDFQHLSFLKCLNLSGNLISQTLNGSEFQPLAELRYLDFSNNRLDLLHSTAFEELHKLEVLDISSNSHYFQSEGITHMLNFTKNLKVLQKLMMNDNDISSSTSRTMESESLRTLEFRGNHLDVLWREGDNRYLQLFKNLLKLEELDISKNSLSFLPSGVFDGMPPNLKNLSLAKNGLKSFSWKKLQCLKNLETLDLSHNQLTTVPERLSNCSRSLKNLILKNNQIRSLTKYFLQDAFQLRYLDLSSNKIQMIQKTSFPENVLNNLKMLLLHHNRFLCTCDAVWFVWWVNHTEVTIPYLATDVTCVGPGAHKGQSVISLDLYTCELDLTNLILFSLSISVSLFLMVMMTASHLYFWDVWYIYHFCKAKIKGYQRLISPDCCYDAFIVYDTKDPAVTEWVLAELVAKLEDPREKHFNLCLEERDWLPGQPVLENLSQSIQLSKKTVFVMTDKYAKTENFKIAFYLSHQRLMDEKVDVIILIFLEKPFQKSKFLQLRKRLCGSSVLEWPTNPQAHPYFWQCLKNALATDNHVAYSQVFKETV
Briefly: Agonist activity at human TLR7 expressed in HEK-Blue-7 cells assessed as increase in NF-kappaB activation by sAP assay. Type of series: functional, cell-based.

A short description of series [1]: Drug uptake in mouse J774.1 cells assessed as perinuclear localization at 100 nM by confocal fluorescence microscopy. In kind it is ADME, cell-based. As to conditions: j774.1, 0.1 µM; call rule not given here.
Series [2] in a line: Drug uptake in human CD3-/CD56- B lymphocytes treated for 30 mins by flow cytometry. In kind it is ADME, cell-based. As to conditions: b-cell, 0.5 h.
Series [3] can be described thus: Drug uptake in human CD3-/CD56+ natural killer cells treated for 30 mins by flow cytometry. In kind it is ADME. As to conditions: nk cell, 0.5 h. For orientation: Flow cytometry measures light scatter and fluorescence of single cells or particles in a stream.
A short description of series [4]: Drug uptake in human CD3+/CD56- T lymphocytes treated for 30 mins by flow cytometry. As to conditions: t-cell, 0.5 h. In kind it is ADME, cell-based.

Molecules are shown by their SMILES.

As for `CCCCc1nc2c(N)nc3ccccc3c2n1Cc1ccc(CNC(=S)NCCCCCNC(=O)COc2ccc(C3=[N+]4C(=Cc5ccc(-c6cccs6)n5[B-]4(F)F)C=C3)cc2)cc1`, the concentration giving a half-maximal response (EC50) (usually the concentration that produces a half-maximal response) on Toll-like receptor 7 came out at 108 nM. The Drug uptake entry in series [1] was “Active”.
Take `CCCCc1nc2c(N)nc3ccccc3c2n1Cc1ccc(CNC(=S)Nc2ccc(-c3c4ccc(=[N+](CC)CC)cc-4oc4cc(N(CC)CC)ccc34)c(C(=O)O)c2)cc1`: the half-maximal effective concentration (EC50) on Toll-like receptor 7 turned out to be 115 nM.
`CCCCc1nc2c(N)nc3ccccc3c2n1Cc1ccc(CNC(=S)Nc2cccc(-c3c4ccc(=O)cc-4oc4cc(O)ccc34)c2C(=O)O)cc1`: the EC50 on Toll-like receptor 7 turned out to be 247 nM. Further, the Drug uptake result in series [2], in series [3] and in series [4] was “Active” each time.
With `CCCCc1nc2c(N)nc3ccccc3c2n1Cc1cccc2ccccc12`, the EC50 on Toll-like receptor 7 is 396 nM.
